In ChEMBL document CHEMBL3734734, “Synthesis and antibacterial activity of trivalent ultrashort Arg-Trp-based antimicrobial peptides (AMPs)” (2015) one finds MIC data, which are given here for eleven molecules.

What all share (assay type): functional
Test [1] concerns Escherichia coli. Put plainly: Antibacterial activity against Escherichia coli DSM 30083 after 16 hrs by microdilution assay. Conditions: DSM 30083 = JCM 1649 = ATCC 11775, 16 h. For orientation: Dilution methods test growth across graded concentrations, often in twofold steps.
Test [2] deals with Acinetobacter baumannii. Put plainly: Antibacterial activity against Acinetobacter baumannii DSM 30007 after 16 hrs by microdilution assay. Conditions: DSM 30007, 16 h.
In test [3] the test system is Staphylococcus aureus. Put plainly: Antibacterial activity against Staphylococcus aureus DSM 20231 after 16 hrs by microdilution assay. The settings on record: DSM 20231, 16 h.
The test system of test [4] is Staphylococcus aureus. Put plainly: Antibacterial activity against methicillin-resistant Staphylococcus aureus ATCC 43300 after 16 hrs by microdilution assay. Conditions: ATCC 43300, 16 h.
In test [5] the test system is Bacillus subtilis. Briefly: Antibacterial activity against Bacillus subtilis 168 after 16 hrs by microdilution assay. The settings on record: subsp. subtilis str. 168, 16 h.

For orientation: MIC means the least concentration at which growth counts as inhibited. The low end stands for inhibition by little substance, the high end for a need for much substance.

Values after ≈ are worked out from the molar mass of the structure shown. Bounds are passed on as bounds.

As for `CCc1c(Cn2cc(CN[C@@H](Cc3c[nH]c4ccccc34)C(=O)N[C@@H](CCCNC(=N)N)C(=O)O)nn2)c(CC)c(Cn2cc(CN[C@@H](Cc3c[nH]c4ccccc34)C(=O)N[C@@H](CCCNC(=N)N)C(=O)O)nn2)c(CC)c1Cn1cc(CN[C@@H](Cc2c[nH]c3ccccc23)C(=O)N[C@@H](CCCNC(=N)N)C(=O)O)nn1`, the minimal inhibitory concentration (MIC) was 15 µM (≈ 22.8 µg/mL) in test [1]; 15 µM (≈ 22.8 µg/mL) in test [2]; 15 µM (≈ 22.8 µg/mL) in test [3]; 7.3 µM (≈ 11.1 µg/mL) in test [4]; 2.2 µM (≈ 3.35 µg/mL) in test [5].
As for H-RWRWRW-NH2, the MIC in test [1] worked out at 21 µM; in test [2], 21 µM; in test [3], 11 µM; in test [4], 5.3 µM; in test [5], 1.3 µM.
Consider `CCc1c(Cn2cc(CN[C@H](Cc3c[nH]c4ccccc34)C(=O)N[C@@H](CCCNC(=N)N)C(=O)N[C@H](Cc3c[nH]c4ccccc34)C(=O)O)nn2)c(CC)c(Cn2cc(CN[C@H](Cc3c[nH]c4ccccc34)C(=O)N[C@@H](CCCNC(=N)N)C(=O)N[C@H](Cc3c[nH]c4ccccc34)C(=O)O)nn2)c(CC)c1Cn1cc(CN[C@H](Cc2c[nH]c3ccccc23)C(=O)N[C@@H](CCCNC(=N)N)C(=O)N[C@H](Cc2c[nH]c3ccccc23)C(=O)O)nn1` (stereo in doubt), for which the minimum inhibitory concentration (MIC) was determined as 16 µM (≈ 33.3 µg/mL) in test [1]; 32 µM (≈ 66.6 µg/mL) in test [2]; 4 µM (≈ 8.33 µg/mL) in test [3]; 2 µM (≈ 4.16 µg/mL) in test [4]; 1 µM (≈ 2.08 µg/mL) in test [5].
With `O=C(O)c1cn(C2CC2)c2cc(N3CCNCC3)c(F)cc2c1=O` [CIPROFLOXACIN], the MIC was determined as 1.5 µM (≈ 0.497 µg/mL) in test [1]; 24 µM (≈ 7.95 µg/mL) in test [2]; 12 µM (≈ 3.98 µg/mL) in test [3]; 12 µM (≈ 3.98 µg/mL) in test [4]; 24 µM (≈ 7.95 µg/mL) in test [5].
Take `N=C(N)NCCC[C@H](NC(=O)[C@@H](Cc1c[nH]c2ccccc12)NCc1cn(Cc2cc(Cn3cc(CN[C@H](Cc4c[nH]c5ccccc45)C(=O)N[C@@H](CCCNC(=N)N)C(=O)N[C@H](Cc4c[nH]c5ccccc45)C(=O)O)nn3)cc(Cn3cc(CN[C@H](Cc4c[nH]c5ccccc45)C(=O)N[C@@H](CCCNC(=N)N)C(=O)N[C@H](Cc4c[nH]c5ccccc45)C(=O)O)nn3)c2)nn1)C(=O)N[C@H](Cc1c[nH]c2ccccc12)C(=O)O` (stereo in doubt): the minimal inhibitory concentration (MIC) in test [1] is 12 µM (≈ 24 µg/mL); in test [2] it was more than 100 µM; in test [3], more than 100 µM; in test [4], 12 µM (≈ 24 µg/mL); in test [5] it was 3 µM (≈ 5.99 µg/mL).
On to `N=C(N)NCCC[C@H](NC(=O)[C@H](Cc1c[nH]c2ccccc12)NC(=O)[C@H](CCCNC(=N)N)NCc1cn(Cc2cc(Cn3cc(CN[C@@H](CCCNC(=N)N)C(=O)N[C@@H](Cc4c[nH]c5ccccc45)C(=O)N[C@@H](CCCNC(=N)N)C(=O)O)nn3)cc(Cn3cc(CN[C@@H](CCCNC(=N)N)C(=O)N[C@@H](Cc4c[nH]c5ccccc45)C(=O)N[C@@H](CCCNC(=N)N)C(=O)O)nn3)c2)nn1)C(=O)O`, for which the MIC in test [1] was 13 µM (≈ 24.8 µg/mL); in test [2] it was 54 µM (≈ 103 µg/mL); in test [3] it was 27 µM (≈ 51.5 µg/mL); in test [4], 13 µM (≈ 24.8 µg/mL); in test [5] it was 6 µM (≈ 11.4 µg/mL).
Take `N=C(N)NCCC[C@H](NC(=O)[C@H](Cc1c[nH]c2ccccc12)NCc1cn(Cc2cc(Cn3cc(CN[C@@H](Cc4c[nH]c5ccccc45)C(=O)N[C@@H](CCCNC(=N)N)C(=O)O)nn3)cc(Cn3cc(CN[C@@H](Cc4c[nH]c5ccccc45)C(=O)N[C@@H](CCCNC(=N)N)C(=O)O)nn3)c2)nn1)C(=O)O`: the MIC in test [1] is 60 µM (≈ 86.3 µg/mL); in test [2] it was 60 µM (≈ 86.3 µg/mL); in test [3], 30 µM (≈ 43.2 µg/mL); in test [4], 15 µM (≈ 21.6 µg/mL); in test [5] it was 7.6 µM (≈ 10.9 µg/mL).
Consider `N=C(N)NCCC[C@H](NC(=O)[C@H](Cc1c[nH]c2ccccc12)NC(=O)[C@@H](N)CCCNC(=N)N)C(=O)NCc1cn(Cc2ccccc2)nn1`, for which the minimum inhibitory concentration (MIC) in test [1] was more than 100 µM; in test [2] it was more than 100 µM; in test [3], more than 100 µM; in test [4], 70 µM (≈ 48.1 µg/mL); in test [5] it was 35 µM (≈ 24 µg/mL).
`CCc1c(Cn2cc(CN[C@@H](CCCNC(=N)N)C(=O)N[C@@H](Cc3c[nH]c4ccccc34)C(=O)O)nn2)c(CC)c(Cn2cc(CN[C@@H](CCCNC(=N)N)C(=O)N[C@@H](Cc3c[nH]c4ccccc34)C(=O)O)nn2)c(CC)c1Cn1cc(CN[C@@H](CCCNC(=N)N)C(=O)N[C@@H](Cc2c[nH]c3ccccc23)C(=O)O)nn1`: the minimum inhibitory concentration (MIC) in test [1] came to 60 µM (≈ 91.4 µg/mL); in test [2], 15 µM (≈ 22.8 µg/mL); in test [3], 7.3 µM (≈ 11.1 µg/mL); in test [4], 7.3 µM (≈ 11.1 µg/mL); in test [5] it was 1.8 µM (≈ 2.74 µg/mL).
Turning to `CCc1c(Cn2cc(CN[C@@H](CCCNC(=N)N)C(=O)N[C@@H](Cc3c[nH]c4ccccc34)C(=O)N[C@@H](CCCNC(=N)N)C(=O)O)nn2)c(CC)c(Cn2cc(CN[C@@H](CCCNC(=N)N)C(=O)N[C@@H](Cc3c[nH]c4ccccc34)C(=O)N[C@@H](CCCNC(=N)N)C(=O)O)nn2)c(CC)c1Cn1cc(CN[C@@H](CCCNC(=N)N)C(=O)N[C@@H](Cc2c[nH]c3ccccc23)C(=O)N[C@@H](CCCNC(=N)N)C(=O)O)nn1`, the minimum inhibitory concentration (MIC) is 13 µM (≈ 25.9 µg/mL) in test [1]; 26 µM (≈ 51.8 µg/mL) in test [2]; 13 µM (≈ 25.9 µg/mL) in test [3]; 13 µM (≈ 25.9 µg/mL) in test [4]; 3 µM (≈ 5.97 µg/mL) in test [5].
Turning to `N=C(N)NCCC[C@H](NCc1cn(Cc2cc(Cn3cc(CN[C@@H](CCCNC(=N)N)C(=O)N[C@@H](Cc4c[nH]c5ccccc45)C(=O)O)nn3)cc(Cn3cc(CN[C@@H](CCCNC(=N)N)C(=O)N[C@@H](Cc4c[nH]c5ccccc45)C(=O)O)nn3)c2)nn1)C(=O)N[C@@H](Cc1c[nH]c2ccccc12)C(=O)O`, the MIC stood at 60 µM (≈ 86.3 µg/mL) in test [1]; 30 µM (≈ 43.2 µg/mL) in test [2]; 30 µM (≈ 43.2 µg/mL) in test [3]; 15 µM (≈ 21.6 µg/mL) in test [4]; 3.8 µM (≈ 5.47 µg/mL) in test [5].
